# Laboratory results published in patent US20100203531A1, “PREDICTING RESPONSIVENESS TO TEMOZOLOMIDE” (priority 2007, published 2010).
# Legend:
# Format in all cases: in vivo, human
# GBM12 xenograft = assay: Orthotopic intracranial xenograft survival, GBM12
# Experimental: (§1) In vivo sensitivity of GBM lines to TMZ: To address whether MGMT methylation or polypeptide expression status are predictive of TMZ responsiveness, the effects of TMZ therapy on survival were evaluated in the panel of xenografts using an orthotopic therapy model. Mice with established intracranial xenografts were treated with 66 mg/kg TMZ or placebo daily for 5 days by oral gavage. This TMZ dosing regimen provides the equivalent dose-exposure to TMZ as the standard adjuvant TMZ dosing regimen for GBM patients of 200 mg/m^2×5 days. All mice were followed until reaching a moribund state, and the relative prolongation of survival following TMZ treatment was calculated for each line relative to placebo treatment (Table 1). […] Further analysis of the relationship between TMZ responsiveness and MGMT methylation status in 17 xenograft lines was conducted by comparing the distribution of median survival prolongation results for methylation-positive and methylation-negative groups of xenografts. From this analysis, MGMT methylation was modestly associated with increased TMZ sensitivity (FIG. 2, p=0.039, two-sample rank sum test). In a similar analysis of MGMT polypeptide expression levels, high levels of MGMT polypeptide expression were invariably associated with relative TMZ resistance, and the absence of MGMT polypeptide expression was associated with significant TMZ sensitivity (r=−0.73, p=0.005). […] While p53, PTEN and EGFR function have been linked to TMZ sensitivity in some models, no correlation between genetic alterations of these genes and TMZ responsiveness was observed.
# Orthotopic model: Therapy evaluations were conducted using an orthotopic tumor model as described elsewhere (Sarkaria et al., Clin Cancer Res, 12:2264-2271 (2006), Giannini et al., Neuro-Oncology, 7:164-176, (2005)). Athymic nude mice (NCI, Frederick, Md.) with established intracranial tumors were randomized into groups of 8 to 10 mice each and treatment was initiated 2 weeks before mice were expected to become moribund. TMZ was purchased from the Mayo Clinic Pharmacy, suspended in Ora-plus (Paddock Laboratories, Minneapolis. […] Mice were observed daily and euthanized when moribund.
# (§2) Statistical analysis: Survival distributions were estimated using the Kaplan-Meier method. The log rank test was used to compare survival across treatment groups. All GBM experiments were pooled and Classification and Regression Tree analysis (CART) was used to identify which CpG sites in the MS-PCR assay (CpG sites 78-82, 86-89) were predictive of overall survival in TMZ treated mice. The two-sample rank sum test was used to compare relative differences in survival relative to MGMT MS-PCR status or CpG89 methylation status. Spearman's correlation coefficient was used to assess the association of relative median survival and protein expression levels of MGMT relative to 13-actin.
# GBM16 xenograft = assay: Orthotopic intracranial xenograft survival, GBM16; conditions: for Survival Prolongation: median survival relative to placebo, 66 mg/kg oral for 5 days (Table 3), 66 mg/kg
# Experimental: as §1
# (§3) Orthotopic model: Therapy evaluations were conducted using an orthotopic tumor model as described elsewhere (Sarkaria et al., Clin Cancer Res, 12:2264-2271 (2006), Giannini et al., Neuro-Oncology, 7:164-176, (2005)). Athymic nude mice (NCI, Frederick, Md.) with established intracranial tumors were randomized into groups of 8 to 10 mice each and treatment was initiated 2 weeks before mice were expected to become moribund. TMZ was purchased from the Mayo Clinic Pharmacy, suspended in Ora-plus (Paddock Laboratories, Minneapolis. MN), and administered by oral gavage at 66 mg/kg for 5 days. Mice were observed daily and euthanized when moribund.
# as §2
# GBM26 xenograft = assay: Orthotopic intracranial xenograft survival, GBM26; conditions: for Survival Prolongation: median survival relative to placebo, 66 mg/kg oral for 5 days (Table 3), 66 mg/kg
# Experimental: as §1, §3, §2
# GBM36 xenograft = assay: Orthotopic intracranial xenograft survival, GBM36
# Experimental: as §1, §3
# as §2, with “Spearman's correlation coefficient was used to assess the association of relative median survival and protein expression levels of MGMT relative to 13-actin.” left out
# GBM46 xenograft = assay: Orthotopic intracranial xenograft survival, GBM46
# Experimental: In vivo sensitivity of GBM lines to TMZ: To address whether MGMT methylation or polypeptide expression status are predictive of TMZ responsiveness, the effects of TMZ therapy on survival were evaluated in the panel of xenografts using an orthotopic therapy model. Mice with established intracranial xenografts were treated with 66 mg/kg TMZ or placebo daily for 5 days by oral gavage. This TMZ dosing regimen provides the equivalent dose-exposure to TMZ as the standard adjuvant TMZ dosing regimen for GBM patients of 200 mg/m^2×5 days. All mice were followed until reaching a moribund state, and the relative prolongation of survival following TMZ treatment was calculated for each line relative to placebo treatment (Table 1). […] Further analysis of the relationship between TMZ responsiveness and MGMT methylation status in 17 xenograft lines was conducted by comparing the distribution of median survival prolongation results for methylation-positive and methylation-negative groups of xenografts. From this analysis, MGMT methylation was modestly associated with increased TMZ sensitivity (FIG. 2, p=0.039, two-sample rank sum test). […]
# [1] = test system: GBM14 cells transduced with a luciferase-expressing lentiviral construct; assay: Salvage TMZ therapy in intracranial GBM14-luciferase tumors with bioluminescence imaging
# Experimental: Development of resistance to TMZ during in vivo therapy: The effect of salvage TMZ therapy in recurrent tumors was studied in the GBM14 xenograft line with the assistance of bioluminescence imaging (BLI). In this study, GBM14 cells were transduced with a luciferase-expressing lentiviral construct and then used to establish intracranial tumors. Mice were randomized into three groups: a) vehicle control, b) single dose of 120 mg/kg TMZ, c) initial TMZ dose followed by a second TMZ dose at the time of tumor regrowth, as indicated by BLI (FIGS. 7A and B). […] Extrapolating to the clinic, the apparent development of TMZ resistance during the course of treatment is reminiscent of patients who experience an initial response to TMZ therapy but then develop progressive disease during latter cycles of TMZ treatment.
smiles,measurement,setting,value
"Cn1nnc2c(C(N)=O)ncn2c1=O [TMZ, Temozolomide]",Survival Prolongation,"GBM12 xenograft; GBM12, median survival relative to placebo, 66 mg/kg oral for 5 days (Table 3)",253%
same,Survival benefit,"GBM12 xenograft; GBM12, prolongation of median survival relative to placebo, TMZ 66 mg/kg oral x5 days",253%
same,Survival benefit,"GBM12 xenograft; GBM12 generation 10, TMZ 120 mg/kg for 5 days, intracranial",268%
same,Survival benefit,"GBM12 xenograft; GBM12 generation 30, TMZ 66 mg/kg for 5 days, intracranial",164%
same,TMZ median survival,"GBM12 xenograft; GBM12 intracranial xenograft, nude mice, TMZ 66 mg/kg oral daily x5 days",53
same,Temozolomide median survival,"GBM12 xenograft; GBM12 intracranial, athymic nude mice, 66 mg/kg oral gavage for 5 days (Table 3)",53
same,Survival Prolongation,GBM16 xenograft; GBM16,579%
same,Survival Prolongation,"GBM16 xenograft; GBM16, listed as Temozolomide",579%
same,Survival benefit,"GBM16 xenograft; GBM16, prolongation of median survival relative to placebo, TMZ 66 mg/kg oral x5 days",579%
same,TMZ median survival,"GBM16 xenograft; GBM16 intracranial xenograft, nude mice, TMZ 66 mg/kg oral daily x5 days",300
same,Temozolomide median survival,"GBM16 xenograft; GBM16 intracranial, athymic nude mice, 66 mg/kg oral gavage for 5 days (Table 3)",326
same,Survival Prolongation,GBM26 xenograft; GBM26,21%
same,Survival Prolongation,"GBM26 xenograft; GBM26, listed as Temozolomide",21%
same,Survival benefit,"GBM26 xenograft; GBM26, prolongation of median survival relative to placebo, TMZ 66 mg/kg oral x5 days",21%
same,TMZ median survival,"GBM26 xenograft; GBM26 intracranial xenograft, nude mice, TMZ 66 mg/kg oral daily x5 days",100
same,Temozolomide median survival,"GBM26 xenograft; GBM26 intracranial, athymic nude mice, 66 mg/kg oral gavage for 5 days (Table 3)",100
same,Survival Prolongation,"GBM36 xenograft; GBM36, median survival relative to placebo, 66 mg/kg oral for 5 days (Table 3)",82%
same,Survival benefit,"GBM36 xenograft; GBM36, prolongation of median survival relative to placebo, TMZ 66 mg/kg oral x5 days",82%
same,TMZ median survival,"GBM36 xenograft; GBM36 intracranial xenograft, nude mice, TMZ 66 mg/kg oral daily x5 days",214
same,Temozolomide median survival,"GBM36 xenograft; GBM36 intracranial, athymic nude mice, 66 mg/kg oral gavage for 5 days (Table 3)",229
same,Survival benefit,"GBM46 xenograft; GBM46, prolongation of median survival relative to placebo, TMZ 66 mg/kg oral x5 days",0%
same,TMZ median survival,"GBM46 xenograft; GBM46 intracranial xenograft, nude mice, TMZ 66 mg/kg oral daily x5 days",50
same,additional survival from second TMZ dose,"[1]; second TMZ dose at time of tumor regrowth/recurrence, beyond single-dose prolongation",22 days
same,survival prolongation with a single TMZ dose,"[1]; single dose of 120 mg/kg TMZ, relative to placebo/vehicle, intracranial GBM14-luciferase",56 days
